Results reported in patent US20220162561A1, “COMPOSITION FOR PROMOTING SECRETION OF EXTRACELLULAR VESICLES” (priority 2019, published 2022).

Legend:
Assay type in all cases: cell-based
[1] = test system: mesenchymal stem cells derived from human adipose tissue; test: Test Example 5: cell proliferation activity (cell viability), CellTiter-Glo; design: scale not given here
Procedure: Mesenchymal stem cells derived from the human adipose tissue (#C-12977 manufactured by Takara Bio Inc.) were suspended in mesenchymal stem cell growth medium 2 (C-28009 manufactured by Takara Bio Inc.) so as to be 2×10^3 cells/90 μL, and seeded on a 96-well cell culture treatment plate (3585 manufactured by Corning Inc.). To the seeded mesenchymal stem cells derived from human adipose tissue was added 10 μL of the compound solution of each of Examples 1 to 8 diluted to 10-fold concentration with the mesenchymal stem cell growth medium 2, or mesenchymal stem cell growth medium alone (control), and the cells were cultured for 24 hours. Subsequently, the number of living cells was measured as follows using CellTiter-Glo (Registered Trademark) Luminescent Cell Viability Assay (G7570 manufactured by Promega). 100 μL well of a solution in which CellTiter-Glo (trademark) Substrate was dissolved in CellTiter-Glo (trademark) Buffer was added to each well of the above-mentioned 96-well cell culture treatment plate, and then, 100 μL thereof was transferred to 96-well cell culture treatment white plate (356701 manufactured by Corning Inc.), and the luminescence was measured with Enspire (manufactured by PerkinElmer).

[2] = test system: human bone marrow-derived mesenchymal stem cells; test: Test Example 7: promotion of secretion of extracellular vesicles, PS Capture exosome ELISA (anti-CD63); settings: 24 hours, compound untreated group (control) set to 1
Procedure: (§1) Human bone marrow-derived mesenchymal stem cells or human umbilical cord matrix-derived mesenchymal stem cells (#C-12974, #C-12971 manufactured by Takara Bio Inc.) were suspended in mesenchymal stem cell growth medium 2 (C-28009 manufactured by Takara Bio Inc.) so as to be 8×10^4 cells/1.8 mL, and seeded on a 6-well cell culture treatment plate (3516 manufactured by Corning Inc.). To the seeded mesenchymal stem cells was added each 200 μL of the compounds of Examples 1 to 8 diluted to 10-fold concentration with the mesenchymal stem cell growth medium 2, and after culturing for 24 hours, the culture solution was recovered. Subsequently, the recovered culture solution was centrifuged under 20,000×g at 4° C. for 60 minutes to prepare a culture solution from which cell fragments and Large Extracellular Vesicles were removed. For the detection of extracellular vesicles, PS Capture (trademark) exosome ELISA kit (anti-mouse IgG POD) (#297-79201 manufactured by FUJIFILM Wako Pure Chemical Corporation) was used.
(§2) To Reaction/Washing Buffer (1×) prepared by diluting Reaction/Washing Buffer (10×) 10-fold with purified water was added 1/100 amount of Exosome Binding Enhancer (100×) to prepare a Reaction/Washing Buffer (1×). Each culture solution was diluted 5-fold with the Reaction/Washing Buffer (1×). After washing Exosome Capture 96-well plate with 300 μL of the Reaction/Washing Buffer (1×) three times, 5-fold-diluted each extracellular vesicle solution, or the mesenchymal stem cell growth medium 2 in which no cell was cultured (negative control) was added to each well, and the mixture was reacted at room temperature for 2 hours while shaking with a microplate shaker. After completion of the reaction, the reaction mixture was discarded, and after washing each well with 300 μL of the Reaction/Washing Buffer (1×) three times, 100 μL of Primary Antibody Anti-CD63 (×100) diluted to 1,000-fold with the Reaction/Washing Buffer (1×) was added thereto, and the mixture were reacted at room temperature for 1 hour while shaking with a microplate shaker. After completion of the reaction, the reaction mixture was discarded, and after washing each well with 300 μL of the Reaction/Washing Buffer (1×) three times, 100 μL of Secondary Antibody HRP-conjugated Anti-mouse IgG (100×) diluted to 1,000-fold with the Reaction/Washing Buffer (1×) was added thereto, and the mixture were reacted at room temperature for 1 hour while shaking with a microplate shaker. After completion of the reaction, the reaction mixture was discarded, and after washing each well with 300 μL of the Reaction/Washing Buffer (1×) five times, 100 μL of TMB Solution was added, and after shaking with a microplate shaker for 1 minutes, the mixture was reacted at room temperature for 30 minutes. After completion of the reaction, 100 μL of Stop Solution was added thereto, and after shaking with a microplate shaker for 5 seconds, the absorbance at 450 nm and 620 nm was measured with Enspire (manufactured by PerkinElmer). Based on the obtained measured values, a value subtracting the absorbance at 620 nm from the absorbance at 450 nm was calculated and a relative value when the compound untreated group (control) was set to 1 was calculated.

[3] = test system: human umbilical cord matrix-derived mesenchymal stem cells; test: as above; settings: 24 hours, compound untreated group (control) set to 1
Procedure: as §1, §2

[4] = test system: mesenchymal stem cells derived from human bone marrow; test: Test Example 8: cytotoxicity, LDH activity in culture solution
Procedure: (§3) Mesenchymal stem cells derived from human bone marrow or mesenchymal stem cells derived from human umbilical cord matrix (#C-12974, #C-12971 manufactured by Takara Bio Inc.) were suspended in mesenchymal stem cell growth medium 2 (C-28009 manufactured by Takara Bio Inc.) so as to be 8×10^4 cells/1.8 mL, and seeded on a 6-well cell culture treatment plate (3516 manufactured by Corning Inc.). To the seeded mesenchymal stem cells was added each 200 μL of the compounds of Examples 1 to 8 diluted to 10-fold concentration with the mesenchymal stem cell growth medium 2, and after culturing for 24 hours, the culture solution was recovered. The activity of lactate dehydrogenase (LDH) contained in the recovered culture solution was measured by using LDH Cytotoxicity Detection Kit (MK401 manufactured by Takara Bio Inc.). To a freeze-dried product of Solution A was added 1 mL of purified water to completely dissolve therein, then, 250 μL of Solution A and 11.25 mL of Solution B were mixed to prepare Solution C. To 100 μL of the recovered culture solution was added 100 μL of Solution C, and the mixture was reacted at room temperature for 30 minutes. Absorbance at 490 nm was measured using Enspire (manufactured by PerkinElmer). Based on the obtained measured values, a relative value when the compound untreated group (control) was set to 1 was calculated.

[5] = test system: mesenchymal stem cells derived from human umbilical cord matrix; test: as above
Procedure: as §3

[6] = 2 μM, 24 hours, LDH, 490 nm, control set to 1
[7] = Table 6, 2 μM, 24 hours, number of living cells, CellTiter-Glo
[8] = 20 nM, 24 hours, LDH, 490 nm, control set to 1
[9] = Table 6, 50 nM, 24 hours, number of living cells, CellTiter-Glo

Structure (SMILES) | Relative value of difference of absorbance ([2]; 2 μM) | Relative value of difference of absorbance ([3]; 2 μM) | Relative value of absorbance [4, 6] | Relative value of absorbance [5, 6] | Luminescence [1, 7] | Relative value of difference of absorbance ([2]; 20 nM) | Relative value of difference of absorbance ([3]; 20 nM) | Relative value of absorbance [4, 8] | Relative value of absorbance [5, 8] | further results
Cc1cc2c(C(C)C)c(O)c(O)c(C=O)c2c(O)c1-c1c(C)cc2c(C(C)C)c(O)c(O)c(C=O)c2c1O [Example 4, (R)-(−)-Gossypol] | 2.39 | 1.95 | 0.97 | 0.88 | – | – | – | – | – | Luminescence ([1]; human, 24 h, 2 μM): 0.85
Cc1cc2c(C(=O)NC[C@H](C)c3ccccc3)c(O)c(O)cc2c(O)c1-c1c(C)cc2c(C(=O)NC[C@H](C)c3ccccc3)c(O)c(O)cc2c1O [Example 8, Sabutoclax] | 1.39 | 1.44 | 1.01 | 1.15 | 0.95 | – | – | – | – | –
COC1=CC(c2cc3ccccc3[nH]2)=N/C1=C\c1[nH]c(C)cc1C.CS(=O)(=O)O [Example 5, Obatoclax Mesylate] | – | – | – | – | – | 1.81 | 1.65 | 0.96 | 0.94 | Luminescence ([1]; Table 5, 50 nM, 24 hours, number of living cells, CellTiter-Glo): 0.75
Cc1cc2c(C(C)C)c(O)c(O)cc2c(O)c1-c1c(C)cc2c(C(C)C)c(O)c(O)cc2c1O [Example 3, (+)-Apogossypol] | 1.53 | 1.31 | – | – | – | – | – | – | – | Luminescence ([1]; human, 24 h, 2 μM): 0.82; Relative value of absorbance ([4]; human, 24 h, 2 μM): 0.99; Relative value of absorbance ([5]; human, 24 h, 2 μM): 1.06
CC(=O)O.Cc1cc2c(C(C)C)c(O)c(O)c(C=O)c2c(O)c1-c1c(C)cc2c(C(C)C)c(O)c(O)c(C=O)c2c1O (racemic) [Example 1, (±)-Gossypol Acetate] | 2.46 | 1.97 | 0.93 | 0.78 | 0.96 | – | – | – | – | Luminescence ([1]; Table 5, 2 μM, 24 hours, number of living cells, CellTiter-Glo): 0.87
CCCCCC1=C/C(=C\c2[nH]c(-c3ccc[nH]3)cc2OC)N=C1C.Cl [Example 6, Prodigiosin Hydrochloride] | – | – | – | – | – | 1.31 | 1.48 | 0.93 | 0.97 | Luminescence [1, 9]: 0.76
CCCCCCCCCCCc1ccc(/C=C2\N=C(c3ccc[nH]3)C=C2OC)[nH]1.Cl [Example 7, Undecylprodigiosin Hydrochloride] | – | – | – | – | – | 2.88 | 1.74 | 0.99 | 1.03 | Luminescence [1, 9]: 0.74
CC(=O)O.Cc1cc2c(C(C)C)c(O)c(O)c(C=O)c2c(O)c1-c1c(C)cc2c(C(C)C)c(O)c(O)c(C=O)c2c1O [Example 2, (S)-Gossypol Acetate] | 2.14 | 1.57 | 0.99 | 1.04 | 1.00 | – | – | – | – | –
